Read-outs that look alike come from different tables or passages of the source. Non-standard residues stand in square brackets, D forms with d. Residues, ends and D or L forms follow the SMILES beside them. Hyp = O=C(O)[C@@H]1C[C@@H](O)CN1; Cha = N[C@@H](CC1CCCCC1)C(=O)O
Tests used:
DR4w4 = target: T1, DR4w4 (Homo sapiens, UniProt P01903+P01911, A100K/A169T/F76Y/I96L/K127E/L162R/M171V/N62H/P40V/Q125Y/R42H/S133A/S149N/S66Y/V115G/V209L/W38E); assay: DR-peptide binding assay, DR4w4
T1 construct: EBV-transformed homozygous cell lines were used as a source of DR molecules; endogenous in cells; host or cells: Preiss or Beh (EBV-transformed human B cell lines, DR4 Dw4 homozygous); lysate purified on a monoclonal antibody LB3.1 column

DR4w14 = assay: DR-peptide binding assay, DR4w14; set-up: species or system human; conditions: Table 3, […]
Protocol: DR-peptide binding assay. Purified DR molecules (10-1,000 nM) were incubated with 10 nM ^125 I-radiolabeled peptide for 48 hours in the presence of added protease inhibitors. […] The final concentrations of protease inhibitors were: 1 mM PMSF, 1.3 mM 1,10-phenanthroline, 73 μM pepstatin A, 8 mM EDTA, 6 mM N-ethyl maleimide, and 200 μM Nα-p-tosyl-L-lysine chloromethyl ketone (TLCK). The final detergent concentration in the incubation mixture was 0.05% NP-40. Several of the peptides screened were hydrophobic and required DMSO to maintain solubility and reduce peptide adsorption to surfaces. In these instances peptide stock solutions were prepared in neat DMSO, and the final DMSO concentration in the incubation mixture was adjusted to 5%. […] The DR-peptide complexes were separated from free peptide by gel filtration on a Sephadex G50 (Pharmacia Fine Chemicals, Piscataway, N.J.) column (23×1.3 cm), as previously described. […] The columns were eluted using PBS (0.5% NP-40, 0.1% NAN3) collected in 1 ml fractions, which were then assayed for radioactivity. The fraction of peptide bound to DR (α) relative to the total amount of offered peptide was determined as the ratio of peptide in the void volume to the total peptide recovered. The α was corrected by subtracting the negative control (^125 I-peptide incubated for two days at room temperature in the presence of protease inhibitors and 120 μg/ml of unlabeled peptide, but in the absence of any DR).
To obtain a figure that positively correlated with the binding affinity, the data were expressed as relative binding values.

HLA-DR1 = target: T2, HLA-DR1 (Homo sapiens, UniProt P01903+P01911, A100R/D57E/F55L/F60I/F76Y/I96L/L162R/M171V/P40L/Q125E/R42F/V115G/Y59C); assay: DR-peptide binding assay, DR1
T2 construct: EBV-transformed homozygous cell lines were used as a source of DR molecules; endogenous in cells; host or cells: LG-2 (EBV-transformed human B cell line, DR1 homozygous); lysate purified on a monoclonal antibody LB3.1 column

[1] = Table 3, binding affinity relative to HA 307-319 = 1

Row | SMILES | MHC Binding Assay DR4w4 (DR4w4; [1]) | MHC Binding Assay DR4w14 (DR4w14) | MHC Binding Assay DR1 (HLA-DR1; [1]) | MHC Binding Assay DR4w4 (DR4w4) | MHC Binding Assay DR1 (HLA-DR1)
1 | C[C@H](NC(=O)[C@H](C)NC(=O)[C@H](C)NC(=O)[C@H](Cc1ccccc1)NC(=O)[C@H](C)NC(=O)[C@@H](C)N)C(=O)N[C@@H](C)C(=O)N[C@H](C(=O)N[C@@H](C)C(=O)N[C@@H](CCCCN)C(=O)N[C@@H](C)C(=O)N[C@@H](C)C(=O)N[C@H](C)C(N)=O)[C@@H](C)O (H-[dA]AFAAAATAKAA[dA]-NH2) | ++ (affinity greater than 1.0) | ++ (affinity greater than 1.0) | ++ (affinity greater than 1.0) |  | 
2 | CC(C)C[C@H](NC(=O)[C@@H](NC(=O)[C@H](CCCCN)NC(=O)[C@H](C)NC(=O)[C@H](C)NC(=O)[C@H](C)NC(=O)[C@H](Cc1ccccc1)NC(=O)[C@H](C)NC(=O)[C@@H](C)N)[C@@H](C)O)C(=O)N[C@@H](C)C(=O)N[C@@H](C)C(=O)N[C@@H](C)C(=O)N[C@H](C)C(N)=O (H-[dA]AFAAAKTLAAA[dA]-NH2) | ++ (affinity greater than 1.0) | ++ (affinity greater than 1.0) | ++ (affinity greater than 1.0) |  | 
3 | CC(=O)N[C@H](Cc1ccc(O)cc1)C(=O)N[C@@H](C)C(=O)N[C@@H](C)C(=O)N[C@@H](CC1CCCCC1)C(=O)N[C@@H](C)C(=O)N[C@@H](C)C(=O)N[C@@H](C)C(=O)N[C@@H](CCCCN)C(=O)N[C@H](C(=O)N[C@@H](C)C(=O)N[C@@H](C)C(=O)N[C@@H](C)C(=O)N[C@@H](C)C(=O)N[C@H](C)C(N)=O)[C@@H](C)O [Ac-yAAXAAAKTAAAAa-NH2] | ++ (affinity greater than 1.0) | ++ (affinity greater than 1.0) | ++ (affinity greater than 1.0) |  | 
4 | C[C@H](NC(=O)[C@H](C)NC(=O)[C@H](CCCCN)NC(=O)[C@H](C)NC(=O)[C@H](Cc1ccccc1)NC(=O)[C@H](C)NC(=O)[C@@H](C)N)C(=O)N[C@H](C(=O)N[C@@H](C)C(=O)N[C@@H](CCCCN)C(=O)N[C@@H](C)C(=O)N[C@@H](C)C(=O)N[C@H](C)C(N)=O)[C@@H](C)O (H-[dA]AFAKAATAKAA[dA]-NH2) | ++ (affinity greater than 1.0) | ++ (affinity greater than 1.0) | ++ (affinity greater than 1.0) |  | 
5 | C[C@H](NC(=O)[C@H](C)NC(=O)[C@H](C)NC(=O)[C@@H](NC(=O)[C@H](CCCCN)NC(=O)[C@H](C)NC(=O)[C@H](C)NC(=O)[C@H](C)NC(=O)[C@H](CC1CCCCC1)NC(=O)[C@@H](C)N)[C@@H](C)O)C(=O)N[C@@H](C)C(=O)N[C@H](C)C(N)=O [aXAAAKTAAAAa-NH2] (H-[dA][Cha]AAAKTAAAA[dA]-NH2) | ++ (affinity greater than 1.0) | ++ (affinity greater than 1.0) | ++ (affinity greater than 1.0) |  | 
6 | C[C@H](NC(=O)[C@H](N)Cc1ccc(O)cc1)C(=O)N[C@@H](C)C(=O)N[C@@H](CC1CCCCC1)C(=O)N[C@@H](C)C(=O)N[C@@H](C)C(=O)N[C@@H](C)C(=O)N[C@@H](CCCCN)C(=O)N[C@H](C(=O)N[C@@H](C)C(=O)N[C@@H](C)C(=O)N[C@@H](C)C(=O)N[C@@H](C)C(=O)N[C@H](C)C(N)=O)[C@@H](C)O [yAAXAAAKTAAAAa-NH2] | ++ (affinity greater than 1.0) | ++ (affinity greater than 1.0) | ++ (affinity greater than 1.0) |  | 
7 | C[C@H](NC(=O)[C@H](C)NC(=O)[C@H](CC1CCCCC1)NC(=O)[C@H](C)NC(=O)[C@@H](C)N)C(=O)N[C@@H](C)C(=O)N[C@@H](C)C(=O)N1C[C@H](O)C[C@H]1C(=O)N[C@@H](CCCCN)C(=O)N[C@@H](C)C(=O)N[C@@H](C)C(=O)N[C@@H](C)C(=O)N[C@H](C)C(N)=O [aAXAAAABKAAAa-NH2] (H-[dA]A[Cha]AAAA[Hyp]KAAA[dA]-NH2) | ++ (affinity greater than 1.0) | ++ (affinity greater than 1.0) | ++ (affinity greater than 1.0) |  | 
8 | C[C@H](NC(=O)[C@H](C)NC(=O)[C@H](C)NC(=O)[C@@H](NC(=O)[C@H](CCCCN)NC(=O)[C@H](C)NC(=O)[C@H](C)NC(=O)[C@H](C)NC(=O)[C@H](CC1CCCCC1)NC(=O)[C@H](C)NC(=O)[C@@H](C)N)[C@@H](C)O)C(=O)N[C@@H](C)C(=O)N[C@H](C)C(N)=O [aAXAAAKTAAAAa-NH2] | ++ (affinity greater than 1.0) | ++ (affinity greater than 1.0) | ++ (affinity greater than 1.0) |  | 
9 | CC(C)C[C@H](NC(=O)[C@@H](NC(=O)[C@H](C)NC(=O)[C@H](C)NC(=O)[C@H](C)NC(=O)[C@H](C)NC(=O)[C@H](CC1CCCCC1)NC(=O)[C@H](C)NC(=O)[C@@H](C)N)[C@@H](C)O)C(=O)N[C@@H](CCCCN)C(=O)N[C@@H](C)C(=O)N[C@@H](C)C(=O)N[C@H](C)C(N)=O [aAXAAAATLKAAa-NH2] | ++ (affinity greater than 1.0) | ++ (affinity greater than 1.0) | ++ (affinity greater than 1.0) |  | 
10 | C[C@H](NC(=O)[C@H](C)NC(=O)[C@H](Cc1ccccc1)NC(=O)[C@H](C)NC(=O)[C@@H](C)N)C(=O)N[C@@H](C)C(=O)N[C@@H](CCCCN)C(=O)N[C@H](C(=O)N[C@@H](C)C(=O)N[C@@H](C)C(=O)N[C@@H](C)C(=O)N[C@@H](Cc1ccccc1)C(=O)N[C@H](C)C(N)=O)[C@@H](C)O (H-[dA]AFAAAKTAAAF[dA]-NH2) | ++ (affinity greater than 1.0) | ++ (affinity greater than 1.0) | ++ (affinity greater than 1.0) |  | 
11 | CC(=O)N[C@H](Cc1ccc(O)cc1)C(=O)N[C@@H](C)C(=O)N[C@@H](C)C(=O)N[C@@H](Cc1ccccc1)C(=O)N[C@@H](C)C(=O)N[C@@H](C)C(=O)N[C@@H](C)C(=O)N[C@@H](C)C(=O)N[C@H](C(=O)N[C@@H](C)C(=O)N[C@@H](CCCCN)C(=O)N[C@@H](C)C(=O)N[C@@H](C)C(=O)N[C@H](C)C(N)=O)[C@@H](C)O (Ac-[dY]AAFAAAATAKAA[dA]-NH2) | ++ (affinity greater than 1.0) | ± (0.1 to 0.50) | ± (0.1 to 0.50) |  | 
12 | CC(=O)N[C@H](C)C(=O)N[C@@H](C)C(=O)N[C@@H](Cc1ccccc1)C(=O)N[C@@H](C)C(=O)N[C@@H](C)C(=O)N[C@@H](C)C(=O)N[C@@H](CCCCN)C(=O)N[C@H](C(=O)N[C@@H](C)C(=O)N[C@@H](C)C(=O)N[C@@H](C)C(=O)N[C@@H](Cc1ccccc1)C(=O)N[C@H](C)C(N)=O)[C@@H](C)O (Ac-[dA]AFAAAKTAAAF[dA]-NH2) | ++ (affinity greater than 1.0) | ++ (affinity greater than 1.0) | ++ (affinity greater than 1.0) |  | 
13 | C[C@H](NC(=O)[C@H](C)NC(=O)[C@H](C)NC(=O)[C@H](Cc1ccccc1)NC(=O)[C@H](C)NC(=O)[C@@H](C)N)C(=O)N[C@@H](C)C(=O)N[C@H](C(=O)N[C@@H](C)C(=O)N[C@@H](CCCCN)C(=O)N[C@@H](C)C(=O)N[C@@H](C)C(=O)N[C@H](C)C(=O)O)[C@@H](C)O (H-[dA]AFAAAATAKAA[dA]-OH) | ++ (affinity greater than 1.0) | ++ (affinity greater than 1.0) | ++ (affinity greater than 1.0) |  | 
14 | CC(C)C[C@H](NC(=O)[C@@H](NC(=O)[C@H](CCCCN)NC(=O)[C@H](C)NC(=O)[C@H](C)NC(=O)[C@H](C)NC(=O)[C@H](Cc1ccccc1)NC(=O)[C@H](C)NC(=O)[C@H](C)NC(=O)[C@H](N)Cc1ccc(O)cc1)[C@@H](C)O)C(=O)N[C@@H](C)C(=O)N[C@@H](C)C(=O)N[C@@H](C)C(=O)N[C@H](C)C(N)=O (H-[dY]AAFAAAKTLAAA[dA]-NH2) | ++ (affinity greater than 1.0) | ++ (affinity greater than 1.0) | ++ (affinity greater than 1.0) |  | 
15 | CC(=O)N[C@H](Cc1ccc(O)cc1)C(=O)N[C@@H](C)C(=O)N[C@@H](C)C(=O)N[C@@H](Cc1ccccc1)C(=O)N[C@@H](C)C(=O)N[C@@H](C)C(=O)N[C@@H](C)C(=O)N[C@@H](CCCCN)C(=O)N[C@H](C(=O)N[C@@H](C)C(=O)N[C@@H](C)C(=O)N[C@@H](C)C(=O)N[C@@H](Cc1ccccc1)C(=O)N[C@H](C)C(N)=O)[C@@H](C)O (Ac-[dY]AAFAAAKTAAAF[dA]-NH2) |  | ++ (affinity greater than 1.0) |  | ++ (key: ++: affinity greater than 1.0; +: .51 to 1.0; ±: 0.1 to .50; -: less than 0.1) | + (key: ++: affinity greater than 1.0; +: 0.51 to 1.0; ±: 0.1 to 0.50; -: less than 0.1)
16 | CC(C)C[C@H](NC(=O)[C@@H](NC(=O)[C@H](C)NC(=O)[C@H](C)NC(=O)[C@H](C)NC(=O)[C@H](C)NC(=O)[C@H](Cc1ccccc1)NC(=O)[C@H](C)NC(=O)[C@@H](C)N)[C@@H](C)O)C(=O)N[C@@H](CCCCN)C(=O)N[C@@H](C)C(=O)N[C@@H](C)C(=O)N[C@H](C)C(N)=O (H-[dA]AFAAAATLKAA[dA]-NH2) | ++ (affinity greater than 1.0) | ++ (affinity greater than 1.0) | ++ (affinity greater than 1.0) |  | 

From US5679640A, “Immunosuppressant peptides” (priority 1995, dated 1997)
